From patent EP4308247B1, “USE OF MONO[…] TREATING SIGNS OF SKIN AGING” (Unilever IP Holdings B.V., priority 2021, dated 2022) come the findings set out here.

Molecules are shown by their SMILES.

For this series, the system named is primary adult human dermal fibroblasts (HDFs). Kind of series: High-throughput compound screen for senolytic activity (cell viability by Hoechst 33342 / SYTOX Green imaging) in early proliferating (EP) and deeply senescent (DS) fibroblasts. The format is cell-based. More on the design: key to hit classification based on EP and DS cell viability: senolytic: EP cell viability above the 89% EP threshold and DS cell viability below the 87% DS threshold for at least one concentration of the three serial concentrations; prolifolytic: decreased EP cell viability below the 89% EP threshold but did not decrease DS cell viability below 87%; cytotoxic: decreased both EP and DS cell viability below their respective thresholds; non-toxic: maintained both EP and DS viability above their respective thresholds. An excerpt:
A high-throughput compound screen of 1240 test compounds including inter alia monostearin (IUPAC: 1,3-dihydroxypropan-2-yl octadecanoate 2,3-dihydroxypropyl octadecanoate) was optimised in primary adult human dermal fibroblasts (HDFs). For this, a model of replicative senescence in HDFs was established. In brief, early proliferating (EP) fibroblasts at passage 11 were serially passaged until they reached replicative senescence at passage 29.
Actinomycin D, a drug widely reported to induce apoptosis in multiple cell types, was optimised for use as a positive 'senolytic control' for the high-throughput compound screen in EP (0.02µM) and DS (0.2µM) HDFs.
In order to perform the high-throughput screen of the test compounds a thorough validation process of the assay was undertaken prior to experimental screening. For both EP and DS HDFs, the following steps were optimised: optimisation of cell seeding densities in 384-well plate format; validation and optimisation of Actinomycin D positive and DMSO-vehicle negative controls; optimisation of high-throughput image acquisition and high content analysis of Hoechst 33342 (ThermoFisher, UK) in combination with SYTOX Green (ThermoFisher, UK) using the INCell 2200 microscope (GE, UK) for cell death phenotypic read-outs; optimisation of liquid handling system protocols; plate uniformity assessments; and a "dry run" of all components in the assay. […]

For `CCCCCCCCCCCCCCCCCC(=O)OCC(O)CO` (centres unmarked) [monostearin, 1,3-dihydroxypropan-2-yl octadecanoate 2,3-dihydroxypropyl octadecanoate], where the note is “DS versus EP HDFs, conclusion drawn from the screen”, the “cytotoxicity for senescent cells, compared to growing cells” value is listed as “preferential cytotoxicity for senescent cells”. Besides, the “hit classification based on EP and DS cell viability” value (EP and DS HDFs, three serial concentrations, 48 hours incubation, read-out five days post-compound addition, class met for at least one concentration) was “senolytic”.
